*1 amine or outer side, *2 acyl side, *3 side chain or, on linkers, in order; H or OH if unused. Where a SMILES comes first, the peptide text is derived from it. Side-chain parts run from the residue outwards. The star is where a group is joined. C18 diacid = O=C(O)CCCCCCCCCCCCCCCCC(=O)*; γGlu = O=C(O)[C@H](CCC(=O)[*:2])N[*:1]; Isovaleryl = CC(C)CC(=O)*; AEEA = NCCOCCOCC(=O)O

The target of this experiment is T1, Human Neuropeptide Y2 Receptor (Homo sapiens, UniProt P49146).
T1 construct: purchased CHEMICON HTS066M
T1 sequence (P49146 1-381): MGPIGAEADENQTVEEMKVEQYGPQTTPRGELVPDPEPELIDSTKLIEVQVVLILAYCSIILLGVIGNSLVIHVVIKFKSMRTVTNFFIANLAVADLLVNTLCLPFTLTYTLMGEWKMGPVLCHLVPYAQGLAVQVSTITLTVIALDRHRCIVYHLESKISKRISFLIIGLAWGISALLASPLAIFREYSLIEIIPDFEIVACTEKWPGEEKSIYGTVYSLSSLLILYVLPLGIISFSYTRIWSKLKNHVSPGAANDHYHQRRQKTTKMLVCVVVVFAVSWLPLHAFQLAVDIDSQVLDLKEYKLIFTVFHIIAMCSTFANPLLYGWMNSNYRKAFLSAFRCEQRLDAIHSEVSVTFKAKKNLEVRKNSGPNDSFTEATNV
Put plainly: Radioligand binding competition assay (RLB). Particulars: Table 3; human 125I-PYY (1-36) 0.02 nM, Y2 receptor membranes; read-out: Ki. Summed up: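 Membranes (0.5 μg/well) and test peptides, serially diluted from 1 mM DMSO stocks, were incubated 2 hours at room temperature in HEPES buffer pH 7.4 with Mg, Ca and ovalbumin.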
For `CC[C@H](C)[C@H](NC(=O)[C@H](Cc1ccc(O)cc1)NC(=O)[C@H](Cc1ccc(O)cc1)NC(=O)[C@H](CCCNC(=N)N)NC(=O)[C@H](CCC(N)=O)NC(=O)[C@H](CC(C)C)NC(=O)[C@H](CCC(=O)O)NC(=O)[C@H](CCC(=O)O)NC(=O)[C@@H]1CCCN1C(=O)[C@H](CO)NC(=O)[C@H](C)NC(=O)[C@H](CC(=O)O)NC(=O)[C@H](CCC(=O)O)NC(=O)[C@H](CCC(=O)O)NC(=O)[C@@H]1CCCN1C(=O)[C@H](CCCCNC(=O)COCCOCCNC(=O)COCCOCCNC(=O)CC[C@H](NC(=O)CCCCCCCCCCCCCCCCC(=O)O)C(=O)O)NC(=O)[C@H](CCC(=O)O)NC(=O)[C@@H]1CCCN1C(=O)[C@H](C)NC(=O)CC(C)C)C(=O)N[C@@H](CO)C(=O)N[C@@H](CC(C)C)C(=O)N[C@@H](CCCNC(=N)N)C(=O)N[C@@H](Cc1c[nH]cn1)C(=O)N[C@@H](Cc1ccc(O)cc1)C(=O)N[C@@H](Cc1ccc(O)cc1)C(=O)N[C@@H](CC(N)=O)C(=O)N[C@@H](Cc1c[nH]c2ccccc12)C(=O)N[C@@H](CC(C)C)C(=O)N[C@H](C(=O)N[C@@H](CCCNC(=N)N)C(=O)N[C@@H](CCC(N)=O)C(=O)N[C@@H](CCCNC(=N)N)C(=O)N[C@@H](Cc1ccc(O)cc1)C(N)=O)[C@@H](C)O` [Compound 191, N{alpha-4}-(3-methylbutanoyl)-N{epsilon-7}-[2-(2-{2-[2-(2-{2-[(4S)-4-carboxy-4-(17-carboxyheptadecanamido)butanamido]ethoxy}ethoxy)acetamido]ethoxy}ethoxy)acetamido]-[4A,7K,9E,18Q,22I,28Y,30W,31L]hPYY (4-36)], the Ki – broadly, the dissociation constant of the complex between target and ligand, obtained from inhibition or displacement – was 1.7 nM.
As for `CC(C)CC(=O)N[C@@H](C)C(=O)N1CCC[C@H]1C(=O)N[C@@H](CCC(=O)O)C(=O)N[C@@H](CCCCNC(=O)COCCOCCNC(=O)COCCOCCNC(=O)CC[C@H](NC(=O)CCCCCCCCCCCCCCCCC(=O)O)C(=O)O)C(=O)N1CCC[C@H]1C(=O)N[C@@H](CCC(=O)O)C(=O)N[C@@H](CCC(=O)O)C(=O)N[C@@H](CC(=O)O)C(=O)N[C@H](C(=O)N[C@@H](CO)C(=O)N1CCC[C@H]1C(=O)N[C@@H](CCC(=O)O)C(=O)N[C@@H](CCC(=O)O)C(=O)N[C@@H](CC(C)C)C(=O)N[C@@H](CCC(N)=O)C(=O)N[C@@H](CCCNC(=N)N)C(=O)N[C@@H](Cc1ccc(O)cc1)C(=O)N[C@@H](CCC(=O)O)C(=O)N[C@H](C(=O)N[C@@H](CO)C(=O)N[C@@H](CC(C)C)C(=O)N[C@@H](CCCNC(=N)N)C(=O)N[C@@H](Cc1c[nH]cn1)C(=O)N[C@@H](Cc1ccc(O)cc1)C(=O)N[C@@H](Cc1ccc(O)cc1)C(=O)N[C@@H](CC(N)=O)C(=O)N[C@@H](Cc1c[nH]c2ccccc12)C(=O)N[C@@H](CC(C)C)C(=O)N[C@H](C(=O)N[C@@H](CCCNC(=N)N)C(=O)N[C@@H](CCC(N)=O)C(=O)N[C@@H](CCCNC(=N)N)C(=O)N[C@@H](Cc1ccc(O)cc1)C(N)=O)[C@@H](C)O)C(C)C)[C@@H](C)O` [Compound 32, N{alpha-4}-(3-methylbutanoyl)-N{epsilon-7}-[2-(2-{2-[2-(2-{2-[(4S)-4-carboxy-4-(17-carboxyheptadecanamido)butanamido]ethoxy}ethoxy)acetamido]ethoxy}ethoxy)acetamido]-[4A,7K,9E,12T,18Q,21E,22V,28Y,30W,31L]hPYY (4-36)] (Isovaleryl-APEK([AEEA-AEEA-γGlu-C18 diacid])PEEDTSPEELQRYEVSLRHYYNWLTRQRY-NH2), the Ki came to 4.84 nM.
In the case of `CC(C)CC(=O)N[C@@H](C)C(=O)N1CCC[C@H]1C(=O)N[C@@H](CCC(=O)O)C(=O)N[C@@H](CCCCNC(=O)COCCOCCNC(=O)COCCOCCNC(=O)CC[C@H](NC(=O)CCCCCCCCCCCCCCCCC(=O)O)C(=O)O)C(=O)N1CCC[C@H]1C(=O)N[C@@H](CCC(=O)O)C(=O)N[C@@H](CCC(=O)O)C(=O)N[C@@H](CC(=O)O)C(=O)N[C@@H](C)C(=O)N[C@@H](CO)C(=O)N1CCC[C@H]1C(=O)N[C@@H](CCC(=O)O)C(=O)N[C@@H](CCC(=O)O)C(=O)N[C@H](C(=O)N[C@@H](CCC(N)=O)C(=O)N[C@@H](CCCNC(=N)N)C(=O)N[C@@H](Cc1ccc(O)cc1)C(=O)N[C@@H](Cc1ccc(O)cc1)C(=O)N[C@H](C(=O)N[C@@H](CO)C(=O)N[C@@H](CC(C)C)C(=O)N[C@@H](CCCNC(=N)N)C(=O)N[C@@H](Cc1c[nH]cn1)C(=O)N[C@@H](Cc1ccc(O)cc1)C(=O)N[C@@H](Cc1ccc(O)cc1)C(=O)N[C@@H](CC(N)=O)C(=O)N[C@@H](Cc1c[nH]c2ccccc12)C(=O)N[C@@H](CC(C)C)C(=O)N[C@H](C(=O)N[C@@H](CCCNC(=N)N)C(=O)N[C@@H](CCC(N)=O)C(=O)N[C@@H](CCCNC(=N)N)C(=O)N[C@@H](Cc1ccc(O)cc1)C(N)=O)[C@@H](C)O)C(C)C)[C@@H](C)O` [Compound 155, N{alpha-4}-(3-methylbutanoyl)-N{epsilon-7}-[2-(2-{2-[2-(2-{2-[(4S)-4-carboxy-4-(17-carboxyheptadecanamido)butanamido]ethoxy}ethoxy)acetamido]ethoxy}ethoxy)acetamido]-[4A,7K,9E,17T,18Q,22V,28Y,30W,31L]hPYY (4-36)], the Ki stood at 2.05 nM.
In the case of `CC(C)CC(=O)N[C@@H](C)C(=O)N1CCC[C@H]1C(=O)N[C@@H](CCC(=O)O)C(=O)N[C@@H](CCCCNC(=O)COCCOCCNC(=O)COCCOCCNC(=O)CC[C@H](NC(=O)CCCCCCCCCCCCCCCCC(=O)O)C(=O)O)C(=O)N1CCC[C@H]1C(=O)N[C@@H](CCC(=O)O)C(=O)N[C@@H](CCC(=O)O)C(=O)N[C@@H](CC(=O)O)C(=O)N[C@@H](C)C(=O)N[C@@H](CO)C(=O)N1CCC[C@H]1C(=O)N[C@@H](CCC(=O)O)C(=O)N[C@@H](CCC(=O)O)C(=O)N[C@@H](CC(C)C)C(=O)N[C@@H](CCC(N)=O)C(=O)N[C@@H](CCCNC(=N)N)C(=O)N[C@@H](Cc1ccc(O)cc1)C(=O)N[C@@H](Cc1ccc(O)cc1)C(=O)N[C@H](C(=O)N[C@@H](CO)C(=O)N[C@@H](CC(C)C)C(=O)N[C@@H](CCCNC(=N)N)C(=O)N[C@@H](Cc1c[nH]cn1)C(=O)N[C@@H](Cc1ccc(O)cc1)C(=O)N[C@@H](Cc1c[nH]c2ccccc12)C(=O)N[C@@H](CC(N)=O)C(=O)N[C@@H](Cc1ccc(O)cc1)C(=O)N[C@@H](CC(C)C)C(=O)N[C@H](C(=O)N[C@@H](CCCNC(=N)N)C(=O)N[C@@H](CCC(N)=O)C(=O)N[C@@H](CCCNC(=N)N)C(=O)N[C@@H](Cc1ccc(O)cc1)C(N)=O)[C@@H](C)O)C(C)C` [Compound 158, N{alpha-4}-(3-methylbutanoyl)-N{epsilon-7}-[2-(2-{2-[2-(2-{2-[(4S)-4-carboxy-4-(17-carboxyheptadecanamido)butanamido]ethoxy}ethoxy)acetamido]ethoxy}ethoxy)acetamido]-[4A,7K,9E,18Q,22V,28W,30Y,31L]hPYY (4-36)] (Isovaleryl-APEK([AEEA-AEEA-γGlu-C18 diacid])PEEDASPEELQRYYVSLRHYWNYLTRQRY-NH2), the Ki was 4.43 nM.
For the compound `CC(C)CC(=O)N[C@@H](C)C(=O)N1CCC[C@H]1C(=O)N[C@@H](CCC(=O)O)C(=O)N[C@@H](CCCCNC(=O)COCCOCCNC(=O)COCCOCCNC(=O)CC[C@H](NC(=O)CCCCCCCCCCCCCCCCC(=O)O)C(=O)O)C(=O)N1CCC[C@H]1C(=O)N[C@@H](CCC(=O)O)C(=O)N[C@@H](CCC(=O)O)C(=O)N[C@@H](C)C(=O)N[C@@H](C)C(=O)N[C@@H](CO)C(=O)N1CCC[C@H]1C(=O)N[C@@H](CCC(=O)O)C(=O)N[C@@H](CCC(=O)O)C(=O)N[C@@H](CC(C)C)C(=O)N[C@@H](CCC(=O)O)C(=O)N[C@@H](CCC(N)=O)C(=O)N[C@@H](Cc1ccc(O)cc1)C(=O)N[C@@H](Cc1ccc(O)cc1)C(=O)N[C@H](C(=O)N[C@@H](CO)C(=O)N[C@@H](CC(C)C)C(=O)N[C@@H](CCCNC(=N)N)C(=O)N[C@@H](Cc1c[nH]cn1)C(=O)N[C@@H](Cc1ccc(O)cc1)C(=O)N[C@@H](Cc1ccc(O)cc1)C(=O)N[C@@H](CC(N)=O)C(=O)N[C@@H](Cc1c[nH]c2ccccc12)C(=O)N[C@@H](CC(C)C)C(=O)N[C@H](C(=O)N[C@@H](CCCNC(=N)N)C(=O)N[C@@H](CCC(N)=O)C(=O)N[C@@H](CCCNC(=N)N)C(=O)N[C@@H](Cc1ccc(O)cc1)C(N)=O)[C@@H](C)O)C(C)C` [Compound 60, N{alpha-4}-(3-methylbutanoyl)-N{epsilon-7}-[2-(2-{2-[2-(2-{2-[(4S)-4-carboxy-4-(17-carboxyheptadecanamido)butanamido]ethoxy}ethoxy)acetamido]ethoxy}ethoxy)acetamido]-[4A,7K,9E,11A,18E,19Q,22V,28Y,30W,31L]hPYY (4-36)] (Isovaleryl-APEK([AEEA-AEEA-γGlu-C18 diacid])PEEAASPEELEQYYVSLRHYYNWLTRQRY-NH2), the inhibition constant Ki stood at 5.95 nM.

These data come from patent US12559529B2, “NPY2 receptor agonists” (Boehringer Ingelheim International GmbH, priority 2019, dated 2026).
